Target: T1, carboxyl terminal truncated form of human stromelysin-I (Homo sapiens, UniProt P08254)
T1 construct: a carboxyl terminal truncated form of human stromelysin-I
Assay: in vitro inhibition of truncated human stromelysin-I, fluorogenic Mca-peptide assay
Type: biochemical
Details: mercaptoalcohol compared with corresponding mercaptoketone
Description: For example, assays of in vitro inhibition activity against a carboxyl terminal truncated form of human stromelysin-I were conducted as follows. The buffer was prepared from 50 mM of N-[2-hydroxyethyl]piperazine-N'-[2-ethanesulfonic acid] (HEPES) (pH 7.0) containing 5 mM calcium, 0.02% of 23 lauryl ether (Brij) and 0.5 mM cysteine and was degassed by vacuum for more than 30 minutes. The methanol (MeOH), which is used for dilution of the inhibitor to the desired concentration, was degassed by bubbling argon for more than 30 minutes. For dilution, a sufficient amount of MeOH was then added to the compounds of the present invention to obtain a 10 mmol solution. For the assay, 20 μL of the MeOH/inhibitor solution was added to 460 μL of buffer, to which 20 μL of 100 nM of stromelysin was then added. The resulting solution was left for three minutes, after which time 5 μL of 100 μM of (7-methoxycoumarin-4-yl)acetyl-Pro-Leu-Gly-Leu-[3-(2',4'-dinitrophenyl)-L- 2,3-diaminopropionyl]-Ala-Arg-NH2 (Mca-peptide)(in dimethyl sulfoxide (DMSO)) was added. The fluorescence intensity increase was measured using a fluoremeter, with excitation wavelength centered around 328 nm (slit of 5 nm) and emission wavelength centered around 393 nm (slit of […]). The slope at each inhibitor concentration was then measured. The slope versus inhibition concentration was next fit into the IC50 equation of […]

T1 sequence (P08254 100-272 limits assumed): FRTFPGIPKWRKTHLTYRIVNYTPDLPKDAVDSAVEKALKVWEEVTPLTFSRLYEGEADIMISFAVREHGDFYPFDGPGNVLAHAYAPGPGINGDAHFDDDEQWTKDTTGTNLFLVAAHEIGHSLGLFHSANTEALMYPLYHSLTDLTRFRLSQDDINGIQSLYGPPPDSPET

## CC(C)C[C@H](CC1CSC(c2ccccc2)(c2ccccc2)O1)C(=O)N1C(=O)OC[C@@H]1Cc1ccccc1 (stereo partly shown) [FIG. 11 (3)]
  potency against stromelysin relative to the corresponding compound (FIG. 11): more than twice as potent

From patent publication US5840698A, “Inhibitors of collagenase-1 and stormelysin-I metalloproteases, pharmaceutical compositions comprising same and methods of their use” (Affymax Technologies N.V., priority 1995, dated 1998)
